Laboratory results from ChEMBL document CHEMBL4376829, “Discovery and biological evaluation of vinylsulfonamide derivatives as highly potent, covalent TEAD autopalmitoylation inhibitors” (Eur J Med Chem, 2019).

Key:
[1] = target: Leucine-rich repeat serine/threonine-protein kinase 2 (Homo sapiens) (UniProt Q5S007); assay: Inhibition of recombinant human LRRK2 (970 to end residues) at 10 uM using RLGRDKYKTLRQIRQ as substrate measured after 40 mins in presence of [gamma33P]ATP by scintillation counting method relative to control
[2] = target: Receptor-type tyrosine-protein kinase FLT3 (Homo sapiens) (UniProt P36888); assay: Inhibition of recombinant human Flt3 (564 to end residues) at 10 uM using EAIYAAPFAKKK as substrate after 40 mins in presence of [gamma33P]ATP by scintillation counting method relative to control
[3] = target: MAP kinase-interacting serine/threonine-protein kinase 2 (Homo sapiens) (UniProt Q9HBH9); assay: Inhibition of recombinant full-length human MNK2 at 10 uM using myelin basic protein as substrate measured after 40 mins in presence of [gamma33P]ATP by scintillation counting analysis relative to control
Sequence of MAP kinase-interacting serine/threonine-protein kinase 2 (Homo sapiens) (Q9HBH9 whole entry, looked up): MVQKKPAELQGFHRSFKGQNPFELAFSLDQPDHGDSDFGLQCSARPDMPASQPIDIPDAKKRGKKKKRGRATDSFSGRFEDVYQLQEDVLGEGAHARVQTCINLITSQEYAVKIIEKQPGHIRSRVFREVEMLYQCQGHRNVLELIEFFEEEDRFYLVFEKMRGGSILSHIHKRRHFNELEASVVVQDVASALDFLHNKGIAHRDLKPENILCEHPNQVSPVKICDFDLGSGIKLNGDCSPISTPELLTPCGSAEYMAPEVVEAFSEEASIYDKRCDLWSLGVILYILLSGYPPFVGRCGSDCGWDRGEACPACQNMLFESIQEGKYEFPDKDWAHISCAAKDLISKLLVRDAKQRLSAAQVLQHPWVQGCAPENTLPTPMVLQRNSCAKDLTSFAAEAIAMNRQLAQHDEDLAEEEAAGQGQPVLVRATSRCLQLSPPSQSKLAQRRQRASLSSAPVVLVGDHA

Sequence of Receptor-type tyrosine-protein kinase FLT3 (Homo sapiens) (P36888 whole entry): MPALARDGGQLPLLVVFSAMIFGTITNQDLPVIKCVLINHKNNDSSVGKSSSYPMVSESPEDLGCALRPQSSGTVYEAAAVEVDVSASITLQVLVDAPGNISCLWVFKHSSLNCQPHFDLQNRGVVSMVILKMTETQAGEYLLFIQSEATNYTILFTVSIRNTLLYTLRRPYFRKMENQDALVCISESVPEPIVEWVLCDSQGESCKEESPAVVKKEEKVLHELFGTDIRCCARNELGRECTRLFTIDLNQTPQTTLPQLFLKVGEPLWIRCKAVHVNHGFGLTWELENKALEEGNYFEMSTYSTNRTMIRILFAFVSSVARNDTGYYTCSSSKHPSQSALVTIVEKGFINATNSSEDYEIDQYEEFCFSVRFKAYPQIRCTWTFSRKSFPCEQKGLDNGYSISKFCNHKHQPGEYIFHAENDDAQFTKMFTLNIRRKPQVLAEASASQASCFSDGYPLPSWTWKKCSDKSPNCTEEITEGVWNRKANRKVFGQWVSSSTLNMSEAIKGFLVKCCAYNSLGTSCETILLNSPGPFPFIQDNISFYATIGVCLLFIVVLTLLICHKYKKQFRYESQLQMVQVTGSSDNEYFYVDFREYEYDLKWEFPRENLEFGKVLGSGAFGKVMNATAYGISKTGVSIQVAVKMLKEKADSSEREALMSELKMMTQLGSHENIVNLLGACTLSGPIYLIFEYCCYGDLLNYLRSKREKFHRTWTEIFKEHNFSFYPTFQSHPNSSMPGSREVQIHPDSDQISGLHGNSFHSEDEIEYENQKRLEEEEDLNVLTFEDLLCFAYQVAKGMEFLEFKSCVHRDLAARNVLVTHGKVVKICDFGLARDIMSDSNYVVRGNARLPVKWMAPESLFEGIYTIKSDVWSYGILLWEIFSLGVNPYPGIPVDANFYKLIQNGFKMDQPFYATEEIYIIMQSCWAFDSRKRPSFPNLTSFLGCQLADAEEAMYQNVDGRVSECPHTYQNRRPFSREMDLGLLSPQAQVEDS
Sequence of Leucine-rich repeat serine/threonine-protein kinase 2 (Homo sapiens) (Q5S007 whole entry): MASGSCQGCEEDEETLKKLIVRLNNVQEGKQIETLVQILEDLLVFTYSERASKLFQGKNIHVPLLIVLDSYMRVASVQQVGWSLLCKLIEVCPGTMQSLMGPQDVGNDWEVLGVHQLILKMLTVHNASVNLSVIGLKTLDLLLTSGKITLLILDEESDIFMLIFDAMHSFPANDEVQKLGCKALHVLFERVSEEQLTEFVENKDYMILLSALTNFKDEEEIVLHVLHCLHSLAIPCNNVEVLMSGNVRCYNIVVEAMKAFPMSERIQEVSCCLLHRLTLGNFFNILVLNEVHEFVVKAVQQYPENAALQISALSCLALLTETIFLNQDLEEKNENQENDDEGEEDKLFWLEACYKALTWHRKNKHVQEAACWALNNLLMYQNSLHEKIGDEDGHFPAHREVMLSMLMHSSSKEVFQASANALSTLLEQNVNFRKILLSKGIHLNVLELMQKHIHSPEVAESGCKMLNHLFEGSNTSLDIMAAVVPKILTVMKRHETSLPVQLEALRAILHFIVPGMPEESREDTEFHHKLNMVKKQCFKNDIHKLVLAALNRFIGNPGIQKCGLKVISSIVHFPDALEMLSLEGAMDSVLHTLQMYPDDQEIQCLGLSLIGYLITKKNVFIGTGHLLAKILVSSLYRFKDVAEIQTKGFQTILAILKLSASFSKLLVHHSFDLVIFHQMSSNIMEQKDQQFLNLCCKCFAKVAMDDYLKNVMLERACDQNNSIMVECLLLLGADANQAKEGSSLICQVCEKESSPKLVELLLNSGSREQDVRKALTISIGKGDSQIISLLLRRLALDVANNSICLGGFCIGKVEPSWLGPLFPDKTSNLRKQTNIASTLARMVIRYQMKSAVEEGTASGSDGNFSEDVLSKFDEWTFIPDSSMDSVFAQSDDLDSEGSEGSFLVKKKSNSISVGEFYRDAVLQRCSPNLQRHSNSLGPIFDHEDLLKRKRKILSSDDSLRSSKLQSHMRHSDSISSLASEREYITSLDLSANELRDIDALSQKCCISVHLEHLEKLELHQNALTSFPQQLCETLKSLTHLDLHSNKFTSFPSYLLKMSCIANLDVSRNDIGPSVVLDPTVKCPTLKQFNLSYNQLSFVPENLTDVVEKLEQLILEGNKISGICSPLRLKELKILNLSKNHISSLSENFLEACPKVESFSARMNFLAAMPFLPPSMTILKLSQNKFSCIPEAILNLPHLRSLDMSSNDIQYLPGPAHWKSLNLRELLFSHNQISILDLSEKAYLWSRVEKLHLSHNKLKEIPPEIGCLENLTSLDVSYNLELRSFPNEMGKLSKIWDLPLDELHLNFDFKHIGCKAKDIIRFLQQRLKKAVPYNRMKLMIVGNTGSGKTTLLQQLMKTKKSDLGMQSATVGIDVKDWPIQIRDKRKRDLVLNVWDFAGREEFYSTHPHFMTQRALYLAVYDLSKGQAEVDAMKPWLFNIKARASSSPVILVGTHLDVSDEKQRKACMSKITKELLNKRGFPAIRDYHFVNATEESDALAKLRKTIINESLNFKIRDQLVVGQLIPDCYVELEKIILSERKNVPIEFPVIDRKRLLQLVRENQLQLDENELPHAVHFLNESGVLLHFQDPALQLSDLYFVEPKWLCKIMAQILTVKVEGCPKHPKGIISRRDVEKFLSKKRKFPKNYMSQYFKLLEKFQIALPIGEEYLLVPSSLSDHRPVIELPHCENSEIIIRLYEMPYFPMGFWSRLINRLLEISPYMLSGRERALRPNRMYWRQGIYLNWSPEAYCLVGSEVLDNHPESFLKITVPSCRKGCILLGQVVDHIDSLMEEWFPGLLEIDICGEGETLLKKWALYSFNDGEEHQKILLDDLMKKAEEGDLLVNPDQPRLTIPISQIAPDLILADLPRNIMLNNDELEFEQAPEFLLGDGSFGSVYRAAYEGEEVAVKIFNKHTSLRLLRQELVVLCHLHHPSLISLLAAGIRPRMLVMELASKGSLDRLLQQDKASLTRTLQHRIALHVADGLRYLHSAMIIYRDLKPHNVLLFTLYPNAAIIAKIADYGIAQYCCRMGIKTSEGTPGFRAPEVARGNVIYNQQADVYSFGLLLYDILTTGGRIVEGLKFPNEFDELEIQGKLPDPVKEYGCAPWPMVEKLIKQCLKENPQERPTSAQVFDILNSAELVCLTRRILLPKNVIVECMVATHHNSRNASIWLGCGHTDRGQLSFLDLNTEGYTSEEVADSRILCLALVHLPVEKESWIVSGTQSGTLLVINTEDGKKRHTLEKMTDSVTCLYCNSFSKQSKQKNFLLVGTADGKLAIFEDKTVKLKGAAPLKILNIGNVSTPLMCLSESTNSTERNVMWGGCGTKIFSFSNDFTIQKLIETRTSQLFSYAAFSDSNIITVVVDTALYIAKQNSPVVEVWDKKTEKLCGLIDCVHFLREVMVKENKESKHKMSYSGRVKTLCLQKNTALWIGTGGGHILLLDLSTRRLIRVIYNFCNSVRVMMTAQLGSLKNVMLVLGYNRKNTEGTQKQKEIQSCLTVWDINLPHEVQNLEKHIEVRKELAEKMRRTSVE

Work on `C=CS(=O)(=O)Nc1ccc(Cc2ccc3ccccc3c2)cc1` yielded an inhibition [1] of -10%, an inhibition [2] of 8% and an inhibition [3] of 7%.
